# Data as given in EP0302626A2, “Insecticidal compounds” (IMPERIAL CHEMICAL INDUSTRIES PLC, priority 1987, dated 1989).
# Where “and” joins values, the source holds several entries; their conditions need not be identical. Equal values may be shown once. Read-outs that look alike come from different tables or passages of the source.
# Key:
# Format in all cases: in vivo
# [1] = system: Musca domestica (houseflies - adults); assay: insecticidal mortality test, contact, cotton wool/sugar; conditions: read-out: grading of mortality, MD
# Method: (§1) The activity of the Product was determined using a variety of insect pests. The Product was used in the form of liquid preparations containing 500, 250 or 100 parts per million (ppm) by weight of the Product. The preparations were made by dissolving the Product in acetone and diluting the solutions with water containing 0.01% by weight of a wetting agent sold under the trade name "LlSSAPOL" NX until the liquid preparations contained the required concentration of the Product. "Lissapol" is a Registered Trade Mark.
# (§2) The test procedure adopted with regard to each pest was basically the same and comprised supporting a number of the pests on a medium which was usually a host plant or a foodstuff on which the pests feed, and treating either or both the pests and the medium with the preparations. The mortality of the pests was then assessed at periods usually varying from one to three days after the treatment.
# (§3) The results of the tests are given in Table III for each of the Products, at the rate in parts per million given in the second column as a grading of mortality designated as A, B or C wherein A indicates 80-100% mortality, B indicates 50-79% mortality and C indicates less than 50% mortality.
# (§4) In Table 111 the pest organism used is designated by a letter code and the pests species, the support medium or food, and the type and duration of test is given in Table II.
# Myzus persicae (aphids) = assay: insecticidal mortality test, contact, Chinese Cabbage leaf; conditions: 72 h, read-out: grading of mortality, MP
# Method: as §1, §2, §3, §4
# [2] = system: Blattella germanica (adult males); assay: Blattella germanica knockdown test; conditions: tests 1 and 2 are repeats; for mortality at 250 ppm / pest or weed control at 250 ppm: Blattella germanica; for mortality at 250 ppm: 48 h, 250 ppm spray, insects held at 25°C and 65% relative humidity for 48 hours, read-out: % MORTALITY 48 hrs; for pest or weed control at 250 ppm: topical, Tetramethrin: mean of 27 observations
# Method: The test compound was dissolved in acetone (2 cm³) and the solution diluted to a concentration of 250 ppm with kerosene. 1 cm³ Of this preparation was sprayed onto 10 Blattella germanica (adult males) held in a netted plastic pot in a Burkhard potter Tower. Assessment of knockdown was performed at intervals of 5 minutes up to a total of 20 minutes. On removal from the Burkhard Potter Tower, the insects were held at 25°C and 65% relative humidity for 48 hours, and an assessment of mortality performed. Each test was repeated.
# In some tests, additional knockdown assessment was performed at intervals of 1, 2, 3 and 4 minutes, and KT₅₀ and KT₉₀ values determined (the time taken, in minutes, to knockdown 50% and 90% respectively of test insects).
# [3] = system: Musca domestica (adult females); assay: Musca domestica knockdown test; conditions: 1 cm3 of 30 ppm solution in acetone, Kearns and March chamber, 20 adult females, observed over 10 minutes; average of 2 replicates (* single replicate, ** average of 7 tests)
# Method: 1 cm³ Of a 30 ppm solution of the test chemical in acetone was sprayed into a Kearns and March chamber containing 20 Musca domestica (adult females). Knockdown was observed over a period of 10 minutes and KT₅₀ and KT₉₀ values (the time taken for 50% and 90% of the insects to be knocked down) were calculated from the observations. The results given in Table V represent average KT values of 2 replicates except where otherwise stated.
# [4] = system: Nephotettix cincticeps (green leaf hopper - nymphs); assay: insecticidal mortality test, contact, rice plant; conditions: 100 ppm, contact, rice plant, read-out: grading of mortality, NC
# Method: as §1, §2, §3, §4
# [5] = system: Heliothis virescens (tobacco budworm - larvae); assay: insecticidal mortality test, residual, cotton leaf; conditions: read-out: grading of mortality, HV
# Method: as §1, §2, §3, §4
# [6] = system: Spodoptera exigua (lesser army worm - larvae); assay: insecticidal mortality test, residual, cotton leaf; conditions: read-out: grading of mortality, SP
# Method: as §1, §2, §3, §4
# [7] = system: Blattella germanica (cockroach nymphs); assay: insecticidal mortality test, residual, plastic pot; conditions: 72 h, read-out: grading of mortality, BG
# Method: as §1, §2, §3, §4
# [8] = system: Tetranychus urticae (spider mites - adult); assay: insecticidal mortality test, contact, French bean leaf; conditions: for mortality at 100 ppm: read-out: grading of mortality, Tua, 100 ppm, 3 days
# Method: as §1, §2, §3, §4
# [9] = system: Diabrotica balteata (rootworm larvae); assay: insecticidal mortality test, residual, filter paper/maize seed; conditions: read-out: grading of mortality, DB
# Method: as §1, §2, §3, §4
# Nilaparvata lugens = assay: insecticidal mortality test, Nephotettix cincticeps replaced by Nilaparvata lugens; conditions: 72 h, read-out: grading of mortality, NC with Nilaparvata lugens
# Method: as §1, §2, §3, §4
# [10] = 250 ppm in kerosene, 1 cm3 sprayed onto 10 adult males
# [11] = 10 min, 250 ppm in kerosene, 1 cm3 sprayed onto 10 adult males, 10 min, read-out: % KNOCKDOWN OBSERVED 10 min
# [12] = 72 h, 100 ppm, residual, cotton leaf, 3 days
# [13] = Nilaparvata lugens, in Oryza sativa
SMILES,mortality at 100 ppm ([1]; 24 h) [%],mortality at 100 ppm (Myzus persicae (aphids)) [%],mortality at 250 ppm [2] [%],"pest or weed control at 250 ppm [2, 11] [%]",KT₅₀ [3],KT₉₀ [3],"mortality at 100 ppm [5, 12] [%]",mortality at 100 ppm ([6]; 72 h) [%],mortality at 100 ppm [7] [%],"mortality at 100 ppm ([8]; Tetranychus urticae, 72 h) [%]",mortality at 100 ppm ([9]; 72 h) [%],mortality at 100 ppm (Nilaparvata lugens; [13]) [%],other results
"CC1(C)C(C=C(Cl)C(F)(F)F)C1C(=O)OCc1c(F)c(F)c(CN=[N+]=[N-])c(F)c1F (racemic) [Product X, 4-(Azidomethyl)-2,3,5,6-tetrafluorobenzyl (1RS, cis)-3-(Z-2-chloro-3,3,3-trifluoroprop-1-en-1-yl)-2,2-dimethylcyclopropanecarboxylate]",80 to 100,80 to 100,100,70,5.0* mins,9.0* mins,80 to 100,80 to 100,80 to 100,80 to 100,80 to 100,,"% KNOCKDOWN OBSERVED 15 min [2, 10]: 100%; mortality at 100 ppm ([4]; 72 h, 3 days): 80 to 100%"
"CC1(C)C(C=C(Cl)C(F)(F)F)C1C(=O)OCc1c(F)c(F)c(CCl)c(F)c1F (racemic) [Product III, 4-(chloromethyl)-2,3,5,6-tetrafluorobenzyl (1RS,cis)-3-(Z-2-chloro-3,3,3-trifluoroprop-1-en-1-yl)-2,2-dimethylcyclopropanecarboxylate]",< 50,80 to 100,100,,10 min,10 min,80 to 100,80 to 100,80 to 100,80 to 100,80 to 100,,"pest or weed control at 250 ppm ([2]; 5 min, 250 ppm in kerosene, 1 cm3 sprayed onto 10 adult males, 5 min, read-out: % KNOCKDOWN OBSERVED 5 min): 100%; mortality at 100 ppm ([4]; 72 h, 3 days): 80 to 100%"
"C#Cc1c(F)c(F)c(COC(=O)C2C(C)(C)C2(C)C)c(F)c1F [Product XVII, 4-Ethynyl-2,3,5,6-tetrafluorobenzyl-2,2,3,3-tetramethylcyclopropanecarboxylate]",,,,,4.1 min,7.5 min,,,,,,,"mortality at 500 ppm ([1]; 24 h, 500 ppm, contact, cotton wool/sugar, 1 day): 80 to 100%; mortality at 500 ppm (Myzus persicae (aphids); 500 ppm, contact, Chinese Cabbage leaf, 3 days): < 50%; mortality at 500 ppm ([5]; 72 h): 80 to 100%; mortality at 500 ppm ([6]; 72 h, 500 ppm, residual, cotton leaf, 3 days): 80 to 100%; mortality at 500 ppm ([7]; 500 ppm, residual, plastic pot, 3 days): 80 to 100%; mortality at 500 ppm ([8]; Tetranychus urticae, 72 h, 500 ppm, 3 days, read-out: grading of mortality, Tua): 80 to 100%; mortality at 500 ppm (Nilaparvata lugens; 500 ppm, footnote *: Nephotettix cincticeps replaced by Nilaparvata lugens, otherwise as NC test (contact, rice plant, 3 days)): 80 to 100%; mortality at 500 ppm ([9]; 72 h, 500 ppm, residual, filter paper/maize seed, 3 days): < 50%"
"C#Cc1c(F)c(F)c(COC(=O)C2C(C=C(Cl)C(F)(F)F)C2(C)C)c(F)c1F (racemic) [Product XVI, 4-Ethynyl-2,3,5,6-tetrafluorobenzyl (1RS, cis)-3-(Z-2-chloro-3,3,3-trifluoroprop-1-en-1-yl)-2,2-dimethylcyclopropanecarboxylate]",80 to 100,80 to 100,100,100,4.6* mins,7.0* mins,80 to 100,80 to 100,80 to 100,50 to 79,80 to 100,80 to 100,
"CC(C)=NNc1c(F)c(F)c(COC(=O)[C@@H]2[C@H](/C=C(\Cl)C(F)(F)F)C2(C)C)c(F)c1F (relative stereo) [Product XIII, 4-(prop-2-ylidenehydrazino)-2,3,5,6-tetrafluorobenzyl (1RS, cis)-3-(Z-2-chloro-3,3,3-trifluoroprop-1-en-1-yl)-2,2-dimethylcyclopropanecarboxylate]",80 to 100,50 to 79,,,,,,,80 to 100,< 50,80 to 100,80 to 100,mortality at 100 ppm ([5]; 72 h): 80 to 100%
"CC1(C)C(C=C(Cl)C(F)(F)F)C1C(=O)OCc1c(F)c(F)c(CF)c(F)c1F (racemic) [Product II, 4-(Fluoromethyl)-2,3,5,6-tetrafluorobenzyl (1RS,cis)-3-(Z-2-chloro-3,3,3-trifluoroprop-1-en-1-yl)-2,2-dimethyl-cyclopropanecarboxylate]",80 to 100,80 to 100,,60,2.7 min,5.0 min,80 to 100,80 to 100,80 to 100,< 50,80 to 100,80 to 100,"% KNOCKDOWN OBSERVED 15 min [2, 10]: 90% and 100%; % KNOCKDOWN OBSERVED 20 min ([2]; 250 ppm in kerosene, 1 cm3 sprayed onto 10 adult males, 20 min): 90%"
"CC(C)=NNc1c(F)c(F)c(COC(=O)[C@@H]2[C@H](C=C(Cl)Cl)C2(C)C)c(F)c1F (relative stereo) [Product XV, 4-(prop-2-ylidenehydrazino)-2,3,5,6-tetrafluorobenzyl (1RS, cis)-3-(2,2-dichloroethenyl)-2,2-dimethyl-cyclopropanecarboxylate]",,,,,,,,,,,,,mortality at 500 ppm ([1]; 24 h): 80 to 100%; mortality at 500 ppm (Myzus persicae (aphids)): 80 to 100%; mortality at 500 ppm ([5]; 72 h): 80 to 100%; mortality at 500 ppm [7]: 80 to 100%; mortality at 500 ppm (Nilaparvata lugens; [13]): 80 to 100%; mortality at 500 ppm ([9]; 72 h): 80 to 100%
"CC1(C)C(C=C(Cl)C(F)(F)F)C1C(=O)OCc1c(F)c(F)c(COC=O)c(F)c1F (racemic) [Product IX, 4-(Formyloxymethyl)-2,3,5,6-tetrafluoromethyl (1RS, trans)-3-(Z-2-chloro-3,3,3-trifluoroprop-1-en-1-yl)-2,2-dimethylcyclopropanecarboxylate]",,80 to 100,100,100,10* mins,10* mins,,,80 to 100,,,,"mortality at 100 ppm ([1]; 72 h): < 50%; mortality at 100 ppm ([4]; 48 h, test duration of 2 days (footnote +)): 80 to 100%; mortality at 100 ppm ([5]; 48 h, 100 ppm, residual, cotton leaf, test duration of 2 days (footnote +)): 80 to 100%; mortality at 100 ppm ([6]; 48 h): 80 to 100%; grading of mortality, Tua ([8]; 100 ppm, 3 days, listed as IX, 4320 min): C (C indicates less than 50% mortality); mortality at 100 ppm ([9]; 48 h): < 50%"
